Calls of active or inactive are those of the source.
Assays:
[1] = NIH-3T3 fibroblast cytotoxicity, dose response, cytotoxicity control, cell-based, fluorescence, Alamar Blue, secondary assay (AID 2327); type: functional;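 further: NIH-3T3 mouse fibroblasts cultured with fluconazole at 8 µg/mL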
[2] = fluconazole-exposed Candida albicans growth modulators – fluorescence, retest, confirmation (AID 2467); type: functional, cell-based
[3] = biological target: T1, Short transient receptor potential channel 4 (Mus musculus, UniProt Q9QUQ5); assay: calcium entry via TRPC4 opening agents – cell-based, HEK293 TRPC4/mu-opioid, Fluo-4 calcium, dose response (AID 434937); type: functional
T1 sequence (Q9QUQ5 whole entry): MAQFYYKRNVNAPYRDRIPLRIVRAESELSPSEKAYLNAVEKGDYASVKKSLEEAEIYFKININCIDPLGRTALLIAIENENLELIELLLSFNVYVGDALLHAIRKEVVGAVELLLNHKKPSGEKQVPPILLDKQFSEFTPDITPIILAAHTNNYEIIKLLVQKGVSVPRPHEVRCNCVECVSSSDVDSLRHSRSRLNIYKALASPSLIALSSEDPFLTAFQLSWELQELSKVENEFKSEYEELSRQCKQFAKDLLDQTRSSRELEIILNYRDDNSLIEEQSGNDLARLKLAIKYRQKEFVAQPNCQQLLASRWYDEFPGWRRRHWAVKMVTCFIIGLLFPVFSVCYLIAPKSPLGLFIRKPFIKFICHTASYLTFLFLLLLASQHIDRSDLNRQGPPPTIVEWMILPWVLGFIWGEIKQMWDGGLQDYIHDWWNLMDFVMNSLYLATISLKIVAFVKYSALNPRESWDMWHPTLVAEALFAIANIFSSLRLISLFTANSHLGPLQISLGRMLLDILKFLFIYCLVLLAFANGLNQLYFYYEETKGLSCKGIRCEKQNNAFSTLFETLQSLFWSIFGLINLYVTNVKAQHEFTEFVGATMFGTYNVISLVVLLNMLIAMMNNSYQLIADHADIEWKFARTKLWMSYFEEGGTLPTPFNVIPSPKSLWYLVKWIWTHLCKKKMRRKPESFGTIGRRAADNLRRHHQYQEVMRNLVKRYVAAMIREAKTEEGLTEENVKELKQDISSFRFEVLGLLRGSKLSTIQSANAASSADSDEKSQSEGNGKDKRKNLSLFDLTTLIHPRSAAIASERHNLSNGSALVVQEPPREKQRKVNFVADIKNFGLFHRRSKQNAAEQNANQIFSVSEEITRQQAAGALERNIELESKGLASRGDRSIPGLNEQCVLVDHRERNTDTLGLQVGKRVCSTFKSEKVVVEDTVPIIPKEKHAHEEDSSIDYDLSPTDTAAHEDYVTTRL

[4] = biological target: T1, Short transient receptor potential channel 4; assay: block of DAMGO-driven TRPC4 calcium entry – cell-based, HEK293 TRPC4/mu-opioid, Fluo-4 calcium, dose response (AID 434942); type: functional;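 further: potency of inhibitors blocking the TRPC4 calcium response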
[5] = biological target: T2, Delta-type opioid receptor (Homo sapiens, UniProt P41143); assay: HTS Image-Based Screen for Antagonists of the DOR Receptor. [Related pubchem assays (depositor defined):AID1777, AID1785, AID1786, AID2133]; type: functional
[6] = biological target: Mu-type opioid receptor (Homo sapiens, UniProt P35372); assay: HTS Image-Based Screen for Agonists of the MOR Receptor. [Related pubchem assays (depositor defined):AID1777, AID1785, AID1786, AID2133]; type: functional;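 further: imaging of beta-arrestin GFP recruitment into spots after receptor activation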
[7] = biological target: T2, Delta-type opioid receptor; assay: HTS Image-Based Screen for Agonists of the DOR Receptor. [Related pubchem assays (depositor defined):AID1777, AID1786, AID2133]; type: functional
[8] = biological target: T3, Beta-galactosidase (Escherichia coli, UniProt Q8VNN2); assay: PubChem AID 485352; type: functional
[9] = Trypanosoma cruzi growth suppression in host cells – NIH3T3 host cells, beta-gal luminescence, confirmation (AID 2044); type: functional, cell-based;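 further: intracellular parasites grown in NIH/3T3 mouse fibroblasts as host cells; luminescent beta-galactosidase reporter signal from transgenic T. cruzi replicating inside host cells; inhibitors lower the luminescence signal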
[10] = biological target: T4, Type-1 angiotensin II receptor (Homo sapiens, UniProt P30556); assay: antagonism of angiotensin II type 1 receptor – cell-based, uHTS hits, selectivity assay for APJ receptor antagonist project, dose response (AID 463214); type: functional;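 further: antagonist potency against angiotensin II stimulated AT1 response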
T4 sequence (P30556 whole entry): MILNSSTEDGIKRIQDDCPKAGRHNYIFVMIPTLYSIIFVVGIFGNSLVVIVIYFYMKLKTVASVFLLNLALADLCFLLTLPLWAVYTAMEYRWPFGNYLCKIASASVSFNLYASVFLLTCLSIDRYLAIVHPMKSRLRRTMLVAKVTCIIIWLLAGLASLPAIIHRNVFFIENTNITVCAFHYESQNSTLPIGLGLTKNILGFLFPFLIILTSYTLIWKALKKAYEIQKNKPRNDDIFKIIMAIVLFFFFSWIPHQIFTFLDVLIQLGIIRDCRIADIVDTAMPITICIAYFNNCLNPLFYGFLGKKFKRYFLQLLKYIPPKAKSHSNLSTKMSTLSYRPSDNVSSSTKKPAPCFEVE

[11] = biological target: T5, Kappa-type opioid receptor (Homo sapiens, UniProt P41145); type: functional
[12] = NIH3T3 cell viability loss – ATP luminescence, mouse fibroblasts, counter-screen, dose response (AID 2010); type: functional, cell-based;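 further: cells exposed to compound for about 90 hours before reading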
[13] = biological target: T3, Beta-galactosidase; type: functional
[14] = biological target: T5, Kappa-type opioid receptor; type: functional; remark: listed apart in the source
[15] = biological target: T6, E3 ubiquitin-protein ligase XIAP (Homo sapiens, UniProt P98170); assay: Counter Screen using XIAP-Bir3 for Chemical Antagonists of Bir1/2 domains of IAP-family anti-apoptotic proteins. [Related pubchem assays (depositor defined):AID1018, AID1449, AID1514, AID1638, AID1749, AID1750, AID488957, AID488963]
[16] = biological target: T6, E3 ubiquitin-protein ligase XIAP; assay: small molecules displacing peptide from XIAP – biochemical, IAP family, fluorescence polarization (AID 1018); type: functional
[17] = biological target: T7, Calpain-2 catalytic subunit (Sus scrofa, UniProt P43367); assay: m-calpain protease blockers, concentration series – biochemical, fluorogenic peptide substrate, dose response (AID 1420); type: functional
T7 sequence (P43367 whole entry): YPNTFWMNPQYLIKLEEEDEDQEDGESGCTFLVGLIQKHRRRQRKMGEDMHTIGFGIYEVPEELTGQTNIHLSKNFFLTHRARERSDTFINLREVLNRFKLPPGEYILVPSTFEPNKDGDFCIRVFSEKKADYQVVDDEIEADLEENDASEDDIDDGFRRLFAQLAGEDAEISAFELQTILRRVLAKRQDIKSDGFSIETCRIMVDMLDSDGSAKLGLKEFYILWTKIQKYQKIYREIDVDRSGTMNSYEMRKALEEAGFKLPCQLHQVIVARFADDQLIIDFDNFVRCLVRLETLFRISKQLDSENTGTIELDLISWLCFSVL

[18] = biological target: Tumor necrosis factor (Homo sapiens, UniProt P01375); assay: analog potency on TNFa NF-kB signaling – cell-based, revised, SAR follow-up (AID 2337); type: functional
[19] = biological target: Nucleotide-binding oligomerization domain-containing protein 1 (Homo sapiens, UniProt Q9Y239); assay: blockers of NOD1 pathway activity – revised, SAR follow-up (AID 2333); type: functional
[20] = tested on: HEK293; assay: cells; conditions: Homo sapiens;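 further: cells exposed to compound for 14 hours overnight before viability readout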

T2 sequence (P41143 whole entry): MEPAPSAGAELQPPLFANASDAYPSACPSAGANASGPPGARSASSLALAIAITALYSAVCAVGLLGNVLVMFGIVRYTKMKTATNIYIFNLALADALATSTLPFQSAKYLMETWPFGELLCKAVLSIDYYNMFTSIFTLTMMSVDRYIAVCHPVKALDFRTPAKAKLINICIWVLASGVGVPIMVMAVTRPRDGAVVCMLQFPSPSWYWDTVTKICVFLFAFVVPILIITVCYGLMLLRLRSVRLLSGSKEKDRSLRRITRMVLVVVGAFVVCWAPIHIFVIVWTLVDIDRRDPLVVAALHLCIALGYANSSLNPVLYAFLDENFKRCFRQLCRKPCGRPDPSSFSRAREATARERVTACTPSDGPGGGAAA
T6 sequence (P98170 whole entry): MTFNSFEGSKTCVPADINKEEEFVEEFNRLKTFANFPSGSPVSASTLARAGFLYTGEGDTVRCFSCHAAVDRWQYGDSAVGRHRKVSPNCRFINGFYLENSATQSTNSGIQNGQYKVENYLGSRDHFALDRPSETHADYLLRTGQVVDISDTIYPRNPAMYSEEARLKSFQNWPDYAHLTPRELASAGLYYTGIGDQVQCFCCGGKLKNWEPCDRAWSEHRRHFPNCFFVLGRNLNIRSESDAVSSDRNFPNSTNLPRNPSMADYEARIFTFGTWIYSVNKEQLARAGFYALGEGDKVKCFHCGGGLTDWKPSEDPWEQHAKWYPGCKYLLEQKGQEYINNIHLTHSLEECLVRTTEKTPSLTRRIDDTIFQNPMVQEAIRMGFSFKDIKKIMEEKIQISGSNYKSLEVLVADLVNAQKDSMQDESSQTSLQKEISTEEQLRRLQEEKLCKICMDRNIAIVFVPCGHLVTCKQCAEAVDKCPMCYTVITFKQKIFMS
T5 sequence (P41145 whole entry): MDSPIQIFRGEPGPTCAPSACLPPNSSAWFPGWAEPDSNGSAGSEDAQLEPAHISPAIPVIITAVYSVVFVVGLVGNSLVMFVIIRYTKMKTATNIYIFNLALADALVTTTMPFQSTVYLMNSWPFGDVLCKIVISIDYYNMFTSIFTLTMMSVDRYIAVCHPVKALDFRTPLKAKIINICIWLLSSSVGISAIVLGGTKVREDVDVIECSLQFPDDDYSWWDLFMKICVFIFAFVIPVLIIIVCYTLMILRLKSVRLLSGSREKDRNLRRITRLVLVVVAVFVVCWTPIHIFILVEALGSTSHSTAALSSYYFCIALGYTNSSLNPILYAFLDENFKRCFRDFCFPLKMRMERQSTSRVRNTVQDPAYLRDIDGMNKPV
T3 sequence (Q8VNN2 whole entry): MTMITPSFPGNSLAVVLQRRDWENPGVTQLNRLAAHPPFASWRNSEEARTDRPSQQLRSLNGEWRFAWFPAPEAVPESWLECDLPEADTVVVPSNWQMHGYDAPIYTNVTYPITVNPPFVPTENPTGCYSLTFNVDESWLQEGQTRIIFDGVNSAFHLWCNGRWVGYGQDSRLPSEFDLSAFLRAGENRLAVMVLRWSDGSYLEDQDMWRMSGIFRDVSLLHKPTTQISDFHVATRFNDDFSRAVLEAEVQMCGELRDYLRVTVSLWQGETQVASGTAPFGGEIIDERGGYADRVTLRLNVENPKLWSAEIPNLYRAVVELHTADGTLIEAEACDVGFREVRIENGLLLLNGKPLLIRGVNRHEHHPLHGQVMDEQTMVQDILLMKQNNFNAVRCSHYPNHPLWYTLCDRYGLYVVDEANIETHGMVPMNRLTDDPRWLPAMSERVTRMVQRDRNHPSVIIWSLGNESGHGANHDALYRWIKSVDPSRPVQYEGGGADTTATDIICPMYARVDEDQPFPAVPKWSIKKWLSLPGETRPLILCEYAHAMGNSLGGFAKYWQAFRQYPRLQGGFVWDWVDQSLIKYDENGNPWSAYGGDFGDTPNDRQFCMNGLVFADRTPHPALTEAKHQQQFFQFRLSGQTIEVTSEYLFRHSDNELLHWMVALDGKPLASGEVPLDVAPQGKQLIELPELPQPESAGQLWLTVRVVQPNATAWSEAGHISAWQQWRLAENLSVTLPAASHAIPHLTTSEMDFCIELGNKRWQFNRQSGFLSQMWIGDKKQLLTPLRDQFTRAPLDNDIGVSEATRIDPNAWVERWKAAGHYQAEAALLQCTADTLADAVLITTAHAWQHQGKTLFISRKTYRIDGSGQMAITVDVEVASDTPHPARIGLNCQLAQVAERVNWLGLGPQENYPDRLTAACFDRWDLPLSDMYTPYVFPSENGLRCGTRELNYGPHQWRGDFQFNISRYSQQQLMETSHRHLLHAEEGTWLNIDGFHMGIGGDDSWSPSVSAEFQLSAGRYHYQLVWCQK
Sequence of Mu-type opioid receptor (P35372 whole entry): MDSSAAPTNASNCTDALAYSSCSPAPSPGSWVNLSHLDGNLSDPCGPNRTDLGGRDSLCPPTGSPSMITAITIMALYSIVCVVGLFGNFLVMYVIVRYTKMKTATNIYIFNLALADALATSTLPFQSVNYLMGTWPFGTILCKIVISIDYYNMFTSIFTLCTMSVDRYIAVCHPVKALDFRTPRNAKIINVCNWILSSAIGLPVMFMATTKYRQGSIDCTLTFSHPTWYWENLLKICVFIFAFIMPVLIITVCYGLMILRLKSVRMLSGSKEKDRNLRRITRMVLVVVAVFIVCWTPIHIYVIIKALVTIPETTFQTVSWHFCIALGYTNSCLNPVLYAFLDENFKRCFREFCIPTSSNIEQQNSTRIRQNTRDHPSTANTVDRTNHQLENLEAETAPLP
Sequence of Tumor necrosis factor (P01375 whole entry, the tested form may be a part): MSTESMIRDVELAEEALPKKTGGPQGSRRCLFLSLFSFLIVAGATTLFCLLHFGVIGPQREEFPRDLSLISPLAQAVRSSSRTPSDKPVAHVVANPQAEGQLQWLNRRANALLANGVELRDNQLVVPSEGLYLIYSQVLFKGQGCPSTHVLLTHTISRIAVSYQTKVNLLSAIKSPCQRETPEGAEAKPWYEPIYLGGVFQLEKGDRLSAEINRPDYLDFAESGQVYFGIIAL
Sequence of Nucleotide-binding oligomerization domain-containing protein 1 (Q9Y239 whole entry, the tested form may be a part): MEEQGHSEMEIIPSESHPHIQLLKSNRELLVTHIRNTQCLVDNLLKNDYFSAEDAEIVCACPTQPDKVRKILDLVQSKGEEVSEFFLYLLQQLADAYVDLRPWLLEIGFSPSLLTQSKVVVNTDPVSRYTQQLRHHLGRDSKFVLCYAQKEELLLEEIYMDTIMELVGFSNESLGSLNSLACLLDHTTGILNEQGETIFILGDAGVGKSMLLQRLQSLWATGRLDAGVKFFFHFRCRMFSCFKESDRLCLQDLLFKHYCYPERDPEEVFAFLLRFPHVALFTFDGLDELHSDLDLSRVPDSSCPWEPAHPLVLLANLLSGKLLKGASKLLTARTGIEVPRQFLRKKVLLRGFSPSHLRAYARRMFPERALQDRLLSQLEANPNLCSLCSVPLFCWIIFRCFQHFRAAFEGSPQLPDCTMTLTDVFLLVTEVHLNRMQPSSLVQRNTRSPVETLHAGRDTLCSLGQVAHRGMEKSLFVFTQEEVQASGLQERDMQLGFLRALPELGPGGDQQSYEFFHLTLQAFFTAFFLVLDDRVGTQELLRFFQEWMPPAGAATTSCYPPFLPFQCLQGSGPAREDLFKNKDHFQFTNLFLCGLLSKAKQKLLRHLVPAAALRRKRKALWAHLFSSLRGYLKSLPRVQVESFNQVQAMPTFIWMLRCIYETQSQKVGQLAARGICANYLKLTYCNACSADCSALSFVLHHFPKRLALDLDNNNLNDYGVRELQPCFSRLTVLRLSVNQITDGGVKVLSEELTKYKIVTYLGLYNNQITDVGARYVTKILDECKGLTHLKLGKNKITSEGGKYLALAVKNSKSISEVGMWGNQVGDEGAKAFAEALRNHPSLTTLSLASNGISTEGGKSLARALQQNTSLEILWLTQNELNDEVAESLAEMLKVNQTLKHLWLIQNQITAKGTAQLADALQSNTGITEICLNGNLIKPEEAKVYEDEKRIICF

## Cc1ccccc1C(=O)NNC(=S)NC(=O)c1ccc(Cl)cc1Cl
[1]
  EC50: > 160 µM (inactive)
[2]
  EC50: 1.75 µM (active)
[3]
  EC50: 1.33 µM (active)

## CCn1c(SCC(=O)c2cc(C)n(CC3CCCO3)c2C)nc2ccccc21 (stereo unspecified)
[4]
  EC50: 5.31 µM (active)
[3]
  EC50: 9.44 µM (active)

## Cc1ccc2oc(Nc3nc(O)cc(-c4ccccc4)n3)nc2c1
[5]
  IC50: > 32 µM (inactive)
[6]
  EC50: > 32 µM (inactive)
[7]
  EC50: > 32 µM (inactive)
[8]
  EC50: > 40 µM (inactive)
[9]
  EC50: 1.62 µM (active)
[10]
  IC50: 3.99 µM (active)
[11]
  IC50: 11.9 µM (active)
[12]
  EC50: > 30 µM (not active)
[13]
  EC50: > 31.5 µM (inactive)
[14]
  IC50: > 32 µM

## COc1ccc(/C=C(\NC(=O)c2ccccc2Cl)C(=O)NCCCC(=O)O)cc1
[15]
  IC50: > 100 µM (inactive)
[16]
  IC50: > 100 µM (not active)
[17]
  IC50: > 50 µM (not active)

## CCOc1ccc(C(=O)Nc2ccc(CN3CCc4ccccc4C3)cc2)cc1
[18]
  IC50: > 20 µM (inactive)
[19]
  IC50: > 20 µM (inactive)
[20]
  IC50: > 20 µM (inactive)
